Results published in patent US20220000117A1, “METHOD FOR CONTROLLING DISEASES IN SMALL GRAIN CEREALS, SEED OF SMALL GRAIN CEREALS, AND METHOD FOR SUPPRESSING LODGING DAMAGE IN SMALL GRAIN CEREALS” (KUMIAI CHEMICAL INDUSTRY CO., LTD., priority 2019, published 2022).

Legend:
septoria leaf blotch [1] = test: Test Example 10: control test of septoria leaf blotch of wheat, cup in greenhouse, inoculated, variety ARKEOS (Tables 15 to 19); type: in vivo, Septoria tritici
Description: (§1) Degree of Disease Occurrence=Σ(Index×Number of Leaves of Index)/(4×Number of Investigated Leaves)×100 (1)
Seed of wheat (variety: ARKEOS) was used, and 100 ml of suspension waters each containing the compound shown in Table 15 at an amount shown in Table 15 (synthesis was performed in accordance with a known method, a liquid dissolved in a small amount of DMSO or formulated 10% wettable powder was used) were prepared. Seed having a mass of 1 kg was mixed into the suspension water with a rate shown in Examples of Table 15, and air-dried, and then, 5 seeds were sown in a plastic cup having a diameter of 6 cm containing mixed soil of river sand and horticultural soil and managed in a greenhouse. In Comparative Examples, 20 ml of suspension water of an active ingredient, which had been adjusted to have a concentration shown in Table 15 to 19, was sprayed in a frame of 45 cm×45 cm in which a pot of wheat seedlings was placed (corresponding to 1000 L/ha) 14 days after seeding. On day 14 after seeding, a spore suspension in which conidiospores of septoria leaf blotch are suspended was sprayed and inoculated on leaves of wheat seedlings (after the sprayed liquid was dried in the case of Comparative Examples), a lesion area ratio of septoria leaf blotch in a second leaf was investigated approximately 35 days after seeding according to the criteria in Table 1, and the degree of disease occurrence was calculated by the above calculation formula (1).

powdery mildew [2] = test: Test Example 9: control test of wheat powdery mildew, cup in greenhouse, inoculated, Norin No. 61 (Tables 10 to 14); type: in vivo, Blumeria graminis; parameters: key to Degree of Disease Occurrence: Σ(index×leaves)/(4×leaves investigated)×100; 0 = no disease, 100 = max
Description: as §1
Seed of wheat (variety: Norin No. 61) was used, and 100 ml of suspension waters each containing the compound shown in Table 10 at an amount shown in […] (synthesis was performed in accordance with a known method, a solution dissolved in DMSO or formulated 10% wettable powder was used) were prepared. The seed having a mass of 1 kg of wheat was mixed into the suspension water with a chemical treated amount shown in Table 10, and air-dried, and then, 5 seeds were sown in a plastic cup having a diameter of 6 cm containing river sand and managed in a greenhouse. In Comparative Examples, 20 ml of the suspension water of an active ingredient, which had been adjusted to have a concentration shown in Table 10, was sprayed in a frame of 45 cm×45 cm in which a pot of wheat seedlings was placed (corresponding to 1000 L/ha) 14 days after seeding. On day 14 after seeding, conidiospores of powdery mildew were sifted over leaves of wheat seedlings and inoculated onto the leaves (after the sprayed liquid was dried in the case of Comparative Examples), a lesion area ratio of powdery mildew in a first leaf was investigated 21 days after seeding according to the criteria in Table 1, and the degree of disease occurrence was calculated by the above calculation formula (1).

wheat (variety: Apache) = test: Test Example 8: emergence rate of wheat seed; type: in vivo
Description: (§2) Seed having a mass of 1 kg of wheat (variety: Apache) was mixed into 100 ml of suspension water containing from 0.5 g or 5 g of the 3,4-dichloroisothiazole derivative of the compound (6) or (3) (synthesis was performed in accordance with a known method, formulated 10% wettable powder was used) and air-dried, and then, 12 seeds were sown in a plastic cup having a diameter of 6 cm containing river sand and managed in a greenhouse. The number of emerged seeds was investigated 12 days after seeding, and an emergence rate was calculated. In Comparative Examples 19 to 22, 20 ml of suspension water of an active ingredient, which had been adjusted to have a concentration shown in Table 9, was sprayed in a frame of 45 cm×45 cm in which a pot of wheat seedlings was placed (corresponding to 1000 L/ha) 12 days after seeding. A spore suspension in which conidiospores of septoria leaf blotch are suspended were sprayed and inoculated on leaves of wheat seedlings 12 days after seeding (after the sprayed liquid was dried in the case of Comparative Examples), a lesion area ratio of septoria leaf blotch in a second leaf was investigated 31 days after seeding according to the criteria in Table 1, and the degree of disease occurrence was calculated by the above calculation formula (1).

septoria leaf blotch [3] = test: Test Example 8: control test of septoria leaf blotch of wheat, cup in greenhouse, inoculated, wheat variety Apache; type: in vivo, Septoria tritici; parameters: key to Degree of Disease Occurrence: Σ(index×leaves of index)/(4×investigated leaves)×100; 0–100 scale; settings: for Degree of Disease Occurrence: 31 days after seeding
Description: as §1, §2

powdery mildew [4] = test: Test Example 4: control test of wheat powdery mildew, cup in greenhouse, inoculated; type: in vivo, Blumeria graminis; settings: for Degree of Disease Occurrence: 22 days after seeding
Description: as §1
Seed having a mass of 1 kg of wheat (variety: Norin No. 61) was mixed into 100 ml of suspension water containing 0.5 g of the above compound (6) or compound (3) (synthesis was performed in accordance with a known method, formulated 10% wettable powder was used) and air-dried, and then, 12 seeds were sown in a plastic cup having a diameter of 6 cm containing river sand and managed in a greenhouse. The number of emerged seeds was investigated nine days after seeding, and an emergence rate was calculated (Examples 10 and 11). In Comparative Example 11 and Comparative Example 12, 20 ml of suspension water of an active ingredient, which had been adjusted to have a concentration shown in Table 5, was sprayed in a frame of 45 cm×45 cm in which a pot of wheat seedlings was placed (corresponding to 1000 L/ha) 15 days after seeding. On day 15 after seeding, conidiospores of powdery mildew were sifted over leaves of wheat seedlings and inoculated onto the leaves (after the sprayed liquid was dried in the case of Comparative Examples), a lesion area ratio of powdery mildew in a first leaf was investigated 22 days after seeding according to the criteria in Table 1, and the degree of disease occurrence was calculated by the above calculation formula (1).

[5] = Table 16, Foliage Treatment, spray 500 ppm suspension water (corresponding to 500 g/ha) 14 days after seeding, untreated 57.1
[6] = Table 16, Foliage Treatment, spray 500 ppm suspension water (corresponding to 500 g/ha) 14 days after seeding, untreated 93.3
[7] = Table 16, Seed Treatment, 5 g/Seed 1 kg (corresponding to 500 g/ha), untreated 57.1
[8] = Table 16, Seed Treatment, 5 g/Seed 1 kg (corresponding to 500 g/ha), untreated 93.3
[9] = Table 11 run (different day), Foliage Treatment, spray 5 ppm (5 g/ha)
[10] = Table 11 run (different day), Foliage Treatment, spray 50 ppm (50 g/ha)
[11] = Table 11 run (different day), Seed Treatment 0.05 g/Seed 1 kg (5 g/ha)
[12] = Table 11 run (different day), Seed Treatment 0.5 g/Seed 1 kg (50 g/ha)
[13] = Table 12 run (different day), Foliage Treatment, spray 50 ppm (50 g/ha)
[14] = Table 12 run (different day), Seed Treatment 0.5 g/Seed 1 kg (50 g/ha)
[15] = Foliage Treatment group, spray 50 ppm (50 g/ha) 12 days after seeding, emergence counted 12 days after seeding
[16] = Foliage Treatment group, spray 500 ppm (500 g/ha) 12 days after seeding, emergence counted 12 days after seeding
[17] = Seed Treatment 0.5 g/Seed 1 kg, 12 days after seeding
[18] = Seed Treatment 5 g/Seed 1 kg (500 g/ha), 12 days after seeding
[19] = Foliage Treatment, spray 50 ppm suspension water (50 g/ha) day 12, second leaf
[20] = Foliage Treatment, spray 500 ppm suspension water (500 g/ha) day 12, second leaf
[21] = Seed Treatment 0.5 g/Seed 1 kg, inoculated day 12, second leaf
[22] = Seed Treatment 5 g/Seed 1 kg (500 g/ha), inoculated day 12, second leaf
[23] = Table 15, Foliage Treatment, spray 50 ppm (50 g/ha) day 14, second leaf, approximately 35 days after seeding
[24] = Table 15, Foliage Treatment, spray 500 ppm (500 g/ha) day 14, second leaf, approximately 35 days after seeding
[25] = Table 15, Seed Treatment 0.5 g/Seed 1 kg (50 g/ha), second leaf, approximately 35 days after seeding
[26] = Table 15, Seed Treatment 5 g/Seed 1 kg (500 g/ha), second leaf, approximately 35 days after seeding
[27] = Table 16, Foliage Treatment, spray 10 ppm suspension water (corresponding to 10 g/ha) 14 days after seeding, untreated 57.1
[28] = Table 16, Foliage Treatment, spray 10 ppm suspension water (corresponding to 10 g/ha) 14 days after seeding, untreated 93.3
[29] = Table 16, Seed Treatment, 0.1 g/Seed 1 kg (corresponding to 10 g/ha), untreated 57.1
[30] = Table 16, Seed Treatment, 0.1 g/Seed 1 kg (corresponding to 10 g/ha), untreated 93.3
[31] = Foliage Spray 50 ppm suspension water (50 g/ha) day 15, first leaf
[32] = Seed Treatment 0.5 g/Seed 1 kg (50 g/ha), inoculated day 15, first leaf
[33] = Table 10 run, Foliage Treatment, spray 5 ppm (5 g/ha) day 14, first leaf, 21 days after seeding
[34] = Table 10 run, Foliage Treatment, spray 50 ppm (50 g/ha) day 14, first leaf, 21 days after seeding
[35] = Table 10 run, Seed Treatment 0.05 g/Seed 1 kg (5 g/ha), first leaf, 21 days after seeding
[36] = Table 10 run, Seed Treatment 0.5 g/Seed 1 kg (50 g/ha), first leaf, 21 days after seeding

Row | Structure (SMILES) | Degree of Disease Occurrence (septoria leaf blotch [1]; [5]) | Disease Leaf Rate (%) (septoria leaf blotch [1]; [6]) | Degree of Disease Occurrence (septoria leaf blotch [1]; [7]) | Disease Leaf Rate (%) (septoria leaf blotch [1]; [8]) | Emergence Rate (%) (wheat (variety: Apache); [15]) | Emergence Rate (%) (wheat (variety: Apache); [16]) | Emergence Rate (%) (wheat (variety: Apache); [17]) | Emergence Rate (%) (wheat (variety: Apache); [18]) | Degree of Disease Occurrence (septoria leaf blotch [3]; [19]) | Degree of Disease Occurrence (septoria leaf blotch [3]; [20]) | Degree of Disease Occurrence (septoria leaf blotch [3]; [21]) | Degree of Disease Occurrence (septoria leaf blotch [3]; [22]) | disease occurrence of septoria leaf blotch, seed treatment compared with spraying on foliage during a growing period (septoria leaf blotch [3]) | Degree of Disease Occurrence (septoria leaf blotch [1]; [23]) | Disease Leaf Rate (%) (septoria leaf blotch [1]; [23]) | Degree of Disease Occurrence (septoria leaf blotch [1]; [24]) | Disease Leaf Rate (%) (septoria leaf blotch [1]; [24]) | Degree of Disease Occurrence (septoria leaf blotch [1]; [25]) | Disease Leaf Rate (%) (septoria leaf blotch [1]; [25]) | Degree of Disease Occurrence (septoria leaf blotch [1]; [26]) | other results
1 | O=S1(=O)N=C(OCc2snc(Cl)c2Cl)c2ccccc21 [Compound (1), Dichlobentiazox] | 71.9 | 100.0 | 45.7 | 95.8 | – | – | – | – | – | – | – | – | – | – | – | – | – | – | – | – | Degree of Disease Occurrence (powdery mildew [2]; [9]): 95.3; Disease Leaf Rate (%) (powdery mildew [2]; [9]): 100%; Degree of Disease Occurrence (powdery mildew [2]; [10]): 89.1; Disease Leaf Rate (%) (powdery mildew [2]; [10]): 100%; Degree of Disease Occurrence (powdery mildew [2]; [11]): 56.4; Disease Leaf Rate (%) (powdery mildew [2]; [11]): 93.8%; Degree of Disease Occurrence (powdery mildew [2]; [12]): 22.7; Disease Leaf Rate (%) (powdery mildew [2]; [12]): 71.9%; Degree of Disease Occurrence (powdery mildew [2]; [13]): 21.7; Disease Leaf Rate (%) (powdery mildew [2]; [13]): 46.7%; Degree of Disease Occurrence (powdery mildew [2]; [14]): 0.0; Disease Leaf Rate (%) (powdery mildew [2]; [14]): 0.0%
2 | OCc1snc(Cl)c1Cl [Compound (3)] | 77.4 | 100.0 | 40.4 | 85.7 | 97.2 | 97.2 | 97.2 | 86.1 | 29.3 | 37.5 | 22.2 | 8.2 | suppressed lower | 29.3 | 97.0 | 37.5 | 91.7 | 22.2 | 77.8 | 8.2 | Disease Leaf Rate (%) (septoria leaf blotch [1]; [26]): 32.8%; Degree of Disease Occurrence (septoria leaf blotch [1]; [27]): 62.5; Disease Leaf Rate (%) (septoria leaf blotch [1]; [28]): 100.0%; Degree of Disease Occurrence (septoria leaf blotch [1]; [29]): 40.6; Disease Leaf Rate (%) (septoria leaf blotch [1]; [30]): 96.9%; Degree of Disease Occurrence (powdery mildew [4]; [31]): 62.1; Degree of Disease Occurrence (powdery mildew [4]; [32]): 17.0; disease occurrence of powdery mildew, seed treatment compared with spraying on foliage during a growing period (powdery mildew [4]): suppressed lower; Degree of Disease Occurrence (powdery mildew [2]; [33]): 63.5; Disease Leaf Rate (%) (powdery mildew [2]; [33]): 100.0%; Degree of Disease Occurrence (powdery mildew [2]; [34]): 56.3; Disease Leaf Rate (%) (powdery mildew [2]; [34]): 100.0%; Degree of Disease Occurrence (powdery mildew [2]; [35]): 45.2; Disease Leaf Rate (%) (powdery mildew [2]; [35]): 100.0%; Degree of Disease Occurrence (powdery mildew [2]; [36]): 14.8; Disease Leaf Rate (%) (powdery mildew [2]; [36]): 59.4%
3 | O=C(O)c1snc(Cl)c1Cl [Compound (6)] | 86.2 | 95.2 | 41.3 | 95.0 | 97.2 | 94.4 | 88.9 | 88.9 | 29.5 | 48.5 | 16.1 | 4.2 | suppressed lower | 29.5 | 88.9 | 48.5 | 100.0 | 16.1 | 58.8 | 4.2 | Disease Leaf Rate (%) (septoria leaf blotch [1]; [26]): 16.9%; Degree of Disease Occurrence (septoria leaf blotch [1]; [27]): 53.3; Disease Leaf Rate (%) (septoria leaf blotch [1]; [28]): 100.0%; Degree of Disease Occurrence (septoria leaf blotch [1]; [29]): 34.7; Disease Leaf Rate (%) (septoria leaf blotch [1]; [30]): 84.4%; Degree of Disease Occurrence (powdery mildew [4]; [31]): 22.2; Degree of Disease Occurrence (powdery mildew [4]; [32]): 16.3; disease occurrence of powdery mildew, seed treatment compared with spraying on foliage during a growing period (powdery mildew [4]): suppressed lower; Degree of Disease Occurrence (powdery mildew [2]; [33]): 56.3; Disease Leaf Rate (%) (powdery mildew [2]; [33]): 100.0%; Degree of Disease Occurrence (powdery mildew [2]; [34]): 40.6; Disease Leaf Rate (%) (powdery mildew [2]; [34]): 87.5%; Degree of Disease Occurrence (powdery mildew [2]; [35]): 48.5; Disease Leaf Rate (%) (powdery mildew [2]; [35]): 93.8%; Degree of Disease Occurrence (powdery mildew [2]; [36]): 28.1; Disease Leaf Rate (%) (powdery mildew [2]; [36]): 87.1%
